Measurements reported in patent publication US20240009156A1, “METHODS AND FORMULATIONS FOR PRENATAL TREATMENT OF ALLAN-HERNDON-DUDLEY SYNDROME” (PriZm, LLC, priority 2022, published 2024).

Legend:
[1] = T3 and T4 concentration in humans with MCT8 deficiency; type: in vivo
[2] = tested on: MCT8-mutant (mct82/2) larvae; conditions: cited from earlier work
[3] = Effect of DITPA on removal of gastrostomy tube (G-tube); type: in vivo, human; conditions: one child who started DITPA while having a G-tube
[4] = tested on: MCT8-deficient (knockout) mice (Mct8KO); conditions: cited from earlier work
[5] = tested on: MCT8 mutant (mct8−/−) zebrafish; conditions: cited from earlier work
wild type mice = conditions: T3-treated wild type mice; cited from earlier work
[6] = human, in vivo; cited from earlier work

O=C(O)CCc1cc(I)c(Oc2ccc(O)cc2)c(I)c1 [DITPA, 3,5-diiodothyropropionic acid]
T3 concentration [1]: reduction
T4 concentration [1]: increase
myelin and axon outgrowth deficiencies [2]: restored the myelin and axon outgrowth deficiencies in mct82/2 larvae
G-tube [3]: removed
body weight [3]: gained weight
TH deficit [4]: corrects the TH deficit
analysis of TH target genes: thyrotoxic state in the liver [4]: target genes revealed amelioration of the thyrotoxic state in the liver
measurements and other parameters of TH action [4]: SRW101 normalized all measurements and other parameters of TH
thyrotoxic effect in the liver [4]: without causing
hypomyelination in the CNS [5]: TH analogs partially rescued the hypomyelination in the CNS of MCT8

N[C@@H](Cc1cc(I)c(Oc2ccc(O)c(I)c2)c(I)c1)C(=O)O [T3, triiodothyronine]
TEE (total energy expenditure) (wild type mice): mice showed increased food intake and TEE, similar to MCT8KO mice.
food intake (wild type mice): mice showed increased food intake and TEE, similar to MCT8KO mice.

O=C(O)Cc1cc(I)c(Oc2ccc(O)c(I)c2)c(I)c1 [TRIAC, triiodothyroacetic acid]
effects in pediatric subjects [6]: analog Triac has also been studied in pediatric subjects with positive
